Data reported in patent US20200339691A1, “PROTEINACEOUS MOLECULES AND USES THEREFOR” (priority 2018, published 2020).
Where a SMILES comes first, the peptide text is derived from it. The star is where a group is joined. Myristoyl = CCCCCCCCCCCCCC(=O)*

Assays:
[1] = system: CD44^hiCD24^lo CSCs in MDA-MB-231 cells; test: FACS analysis of CD44^hiCD24^lo cancer stem cells in MDA-MB-231 cells treated with P1 analogues; assay type: cell-based, human; conditions: 50 μM peptide, 48 hours; for CD44^hiCD24^lo CSCs (%) / COI, Live Single CD44^hiCD24^lo CSCs (Cell Count): n = 1; for Average Inhibition of CSCs (%) / CD44^hiCD24^lo CSCs (%) Repeat 1 / CD44^hiCD24^lo CSCs (%) Repeat 2 / CD44^hiCD24^lo CSCs (%) Repeat 3: n = 3
Procedure: Analogues of P1 (Table 6) were designed and synthesized in accordance with the procedure of Example 5. The ability of these analogues to inhibit cancer stem cells was determined using FACS analysis on MDA-MB-231 cells, which constitutively contain approximately 90% CD44^hiCD24^lo cancer stem cells, treated with the peptides.
(§1) Non-adherent cells were removed during the washing steps.

MDA-MB-231 cells = assay type: cell-based, human; conditions: 50 μM peptide, 48 hours, n = 1
Description: as §1
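For COI, Live Single Cells (Cell Count) in this document: live means Hoechst-negative events among single cells.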

Compound	Inhibition of CSCs (%) Repeat 1 [1] [%]	Inhibition of CSCs (%) Repeat 2 [1] [%]	Inhibition of CSCs (%) Repeat 3 [1] [%]	CD44^hiCD24^lo CSCs (%) [1] [%]	COI, Live Single CD44^hiCD24^lo CSCs (Cell Count) [1]	Average Inhibition of CSCs (%) [1] [%]	CD44^hiCD24^lo CSCs (%) Repeat 1 [1] [%]	CD44^hiCD24^lo CSCs (%) Repeat 2 [1] [%]	CD44^hiCD24^lo CSCs (%) Repeat 3 [1] [%]	COI (Cell Count) (MDA-MB-231 cells)	COI, Live Single Cells (Cell Count) (MDA-MB-231 cells)	COI, Single (Cell Count) (MDA-MB-231 cells)	Total Cell Count (MDA-MB-231 cells)
CCCCCCCCCCCCCC(=O)N[C@@H](CC(C)C)C(=O)N[C@H](C(=O)N[C@@H](Cc1ccccc1)C(=O)N[C@H](C(=O)N[C@@H](Cc1ccccc1)C(=O)N[C@@H](CCCNC(=N)N)C(=O)N[C@@H](CC(C)C)C(=O)N[C@@H](CCCNC(=N)N)C(=O)N[C@@H](CCCCN)C(=O)NCC(=O)N[C@@H](CCCNC(=N)N)C(=O)N[C@@H](CCSC)C(=O)N[C@@H](CCCCN)C(=O)N[C@@H](CC(=O)O)C(=O)N[C@H](C(=O)N[C@@H](CCCCN)C(=O)N[C@@H](CCCCN)C(N)=O)C(C)C)[C@@H](C)CC)[C@@H](C)O [Peptide 2853835, Myristoyl-LTFIFRLRKGRMKDVKK-NH2] (Myristoyl-LTFIFRLRKGRMKDVKK-NH2)	90.70	90.45	89.87	2.50	1	90.34	8.33	8.57	9.09	1733	40	1292	8580
CCCCCCCCCCCCCC(=O)N[C@@H](CC(C)C)C(=O)N[C@H](C(=O)N[C@@H](Cc1ccccc1)C(=O)N[C@H](C(=O)N[C@@H](Cc1ccccc1)C(=O)N[C@@H](CCCNC(=N)N)C(=O)N[C@@H](CC(C)C)C(=O)N[C@@H](CCCNC(=N)N)C(=O)N[C@@H](CCCCN)C(=O)NCC(=O)N[C@@H](CCCNC(=N)N)C(=O)N[C@@H](CCSC)C(=O)N[C@@H](CCSC)C(=O)N[C@@H](CCCCN)C(=O)N[C@H](C(=O)N[C@@H](CCCCN)C(=O)N[C@@H](CCCCN)C(N)=O)C(C)C)[C@@H](C)CC)[C@@H](C)O [Peptide 2853836, Myristoyl-LTFIFRLRKGRMMKVKK-NH2] (Myristoyl-LTFIFRLRKGRMMKVKK-NH2)	88.84	82.17	86.35	9.30	8	85.79	10.00	16.00	12.24	761	86	547	5448
CCCCCCCCCCCCCC(=O)N[C@@H](CC(C)C)C(=O)N[C@H](C(=O)N[C@@H](Cc1ccccc1)C(=O)N[C@H](C(=O)N[C@@H](Cc1ccccc1)C(=O)N[C@@H](CCCNC(=N)N)C(=O)N[C@@H](CC(C)C)C(=O)N[C@@H](CCCNC(=N)N)C(=O)N[C@@H](CCCCN)C(=O)NCC(=O)N[C@@H](CCCNC(=N)N)C(=O)N[C@@H](CCSC)C(=O)N[C@@H](CCSC)C(=O)N[C@H](C(=O)N[C@H](C(=O)N[C@@H](CCCCN)C(=O)N[C@@H](CCCCN)C(N)=O)C(C)C)C(C)C)[C@@H](C)CC)[C@@H](C)O [Peptide 2853837, Myristoyl-LTFIFRLRKGRMMVVKK-NH2] (Myristoyl-LTFIFRLRKGRMMVVKK-NH2)	93.82	93.76	88.86	5.53	13	92.15	5.54	5.59	10.00	452	235	364	4805
CCCCCCCCCCCCCC(=O)N[C@@H](CC(C)C)C(=O)N[C@H](C(=O)N[C@@H](Cc1ccccc1)C(=O)N[C@H](C(=O)N[C@@H](Cc1ccccc1)C(=O)N[C@@H](CCCNC(=N)N)C(=O)N[C@@H](CC(C)C)C(=O)N[C@@H](CCCNC(=N)N)C(=O)N[C@@H](CCCCN)C(=O)NCC(=O)N[C@@H](CCCNC(=N)N)C(=O)N[C@@H](CCSC)C(=O)N[C@@H](CCSC)C(=O)N[C@@H](CC(=O)O)C(=O)N[C@@H](CCC(=O)O)C(=O)N[C@@H](CCCCN)C(=O)N[C@@H](CCCCN)C(N)=O)[C@@H](C)CC)[C@@H](C)O [Peptide 2853838, Myristoyl-LTFIFRLRKGRMMDEKK-NH2] (Myristoyl-LTFIFRLRKGRMMDEKK-NH2)	86.55	81.44	86.40	10.16	31	84.80	12.05	16.65	12.20	408	305	333	888
CCCCCCCCCCCCCC(=O)N[C@@H](CC(C)C)C(=O)N[C@H](C(=O)N[C@@H](Cc1ccccc1)C(=O)N[C@H](C(=O)N[C@@H](Cc1ccccc1)C(=O)N[C@@H](CCCNC(=N)N)C(=O)N[C@@H](CC(C)C)C(=O)N[C@@H](CCCNC(=N)N)C(=O)N[C@@H](CCCCN)C(=O)NCC(=O)N[C@@H](CCCNC(=N)N)C(=O)N[C@@H](CCSC)C(=O)N[C@@H](CCSC)C(=O)N[C@@H](CC(=O)O)C(=O)N[C@H](C(=O)N[C@@H](CCCNC(=N)N)C(=O)N[C@@H](CCCCN)C(N)=O)C(C)C)[C@@H](C)CC)[C@@H](C)O [Peptide 2853840, Myristoyl-LTFIFRLRKGRMMDVRK-NH2] (Myristoyl-LTFIFRLRKGRMMDVRK-NH2)	82.01	81.08	83.80	18.83	58	82.30	16.13	16.97	14.54	709	308	487	3715
CCCCCCCCCCCCCC(=O)N[C@@H](CC(C)C)C(=O)N[C@H](C(=O)N[C@@H](Cc1ccccc1)C(=O)N[C@H](C(=O)N[C@@H](Cc1ccccc1)C(=O)N[C@@H](CCCNC(=N)N)C(=O)N[C@@H](CC(C)C)C(=O)N[C@@H](CCCNC(=N)N)C(=O)N[C@@H](CCCCN)C(=O)NCC(=O)N[C@@H](CCCNC(=N)N)C(=O)N[C@@H](CCSC)C(=O)N[C@@H](CCSC)C(=O)N[C@@H](CC(=O)O)C(=O)N[C@H](C(=O)N[C@@H](CCC(=O)O)C(=O)N[C@@H](CCCCN)C(N)=O)C(C)C)[C@@H](C)CC)[C@@H](C)O [Peptide 2853841, Myristoyl-LTFIFRLRKGRMMDVEK-NH2] (Myristoyl-LTFIFRLRKGRMMDVEK-NH2)	78.06	79.59	80.30	11.40	147	79.32	19.67	18.31	17.67	2072	1289	1594	6480
CCCCCCCCCCCCCC(=O)N[C@@H](CC(C)C)C(=O)N[C@H](C(=O)N[C@@H](Cc1ccccc1)C(=O)N[C@H](C(=O)N[C@@H](Cc1ccccc1)C(=O)N[C@@H](CCCNC(=N)N)C(=O)N[C@@H](CC(C)C)C(=O)N[C@@H](CCCNC(=N)N)C(=O)N[C@@H](CCCCN)C(=O)NCC(=O)N[C@@H](CCCNC(=N)N)C(=O)N[C@@H](CCSC)C(=O)N[C@@H](CCSC)C(=O)N[C@@H](CC(=O)O)C(=O)N[C@H](C(=O)N[C@@H](CC(C)C)C(=O)N[C@@H](CCCCN)C(N)=O)C(C)C)[C@@H](C)CC)[C@@H](C)O [Peptide 2853842, Myristoyl-LTFIFRLRKGRMMDVLK-NH2] (Myristoyl-LTFIFRLRKGRMMDVLK-NH2)	76.16	78.88	81.46	12.39	27	78.83	21.37	18.95	16.64	325	218	249	3873
